# Where “and” joins values, the source holds several entries; their conditions need not be identical. Identical values can stand only once.
# What was measured:
# Zika virus [1] = assay: EC50 is reported via analysis of immunofluorescence staining. The assay has been performed by Icahn School of Medicine at Mount Sinai.; format: functional, organism-based, Chlorocebus sabaeus, VeroE6/TMPRSS2
# dengue virus type 2 [2] = assay: (§1) Functional immunofluorescence assay to measure dose dependent changes in antiviral-drug inhibitory efficacy against Dengue virus type 2 Thailand/16681/84 in Vero E6/TMPRSS2 cells (cotreated with P-gp inhibitor, Elacridar). Cells are treated with antiviral candidates that are serially diluted, following infection, cells are fixed. EC50 is reported via analysis of immunofluorescence staining. The assay has been performed by Icahn School of Medicine at Mount Sinai.; format: organism-based, Chlorocebus sabaeus, VeroE6/TMPRSS2
# Zika virus [3] = assay: (§2) Functional CPE-based assay to measure dose dependent changes in antiviral-drug inhibitory efficacy against Zika virus MR766 in Vero E6 miRFP670 cells. Cells are treated with antiviral candidates that are serially diluted. EC50 is reported via analysis of MTS assay as a readout of CPE. The assay has been performed by KU Leuven.; format: organism-based, Chlorocebus sabaeus, Vero C1008
# Zika virus [4] = assay: as §1, with “Zika” for “Dengue”, “PRVABC59” for “type 2 Thailand/16681/84”, “cells.” for “cells (cotreated with P-gp inhibitor, Elacridar).”; format: organism-based, Chlorocebus sabaeus; settings: for EC50: VeroE6/TMPRSS2
# dengue virus type 2 [5] = assay: as §1, with “cells.” for “cells (cotreated with P-gp inhibitor, Elacridar).”; format: organism-based, Chlorocebus sabaeus; settings: for EC50: VeroE6/TMPRSS2; for EC90: VeroE6/TMPRSS2, Baseline response 0 %, Maximum response 100 %
# dengue virus type 2 [6] = assay: Functional assay to measure dose dependent changes in antiviral-drug inhibitory efficacy against Dengue virus type 2 New Guinea C in Vero E6 miRFP670 cells (cotreated with P-gp inhibitor, CP100356). Cells are treated with antiviral candidates that are serially diluted, following infection, cells are fixed. EC50 is reported via analysis of fluorescence intensity using high-content imager. The …; format: organism-based, Chlorocebus sabaeus, Vero C1008
# dengue virus type 2 [7] = assay: as §2, with “Dengue” for “Zika”, “type 2 New Guinea C” for “MR766”, “Huh7” for “Vero E6 miRFP670”, “MTT/MTS” for “MTS”, “National Institute of Allergy and Infectious Diseases.” for “KU Leuven.”; format: organism-based, Homo sapiens; settings: Huh-7
# [8] = test system: Middle East respiratory syndrome-related coronavirus; assay: microbe, parasite or virus in culture; format: functional, organism-based, Chlorocebus sabaeus; settings: VeroE6/TMPRSS2
# Zika virus [9] = assay: as §2, with “cells (cotreated with P-gp inhibitor, CP100356).” for “cells.”; format: organism-based, Chlorocebus sabaeus, Vero C1008; settings: for EC90: Baseline response 0 %, Maximum response 100 %, P-gp inhibitor CP100356
# dengue virus type 2 [10] = assay: Functional assay to measure dose dependent changes in antiviral-drug inhibitory efficacy against Dengue virus type 2 New Guinea C in Vero E6 miRFP670 cells. Cells are treated with antiviral candidates that are serially diluted, following infection, cells are fixed. EC50 is reported via analysis of fluorescence intensity using high-content imager. The assay has been performed by KU Leuven.; format: organism-based, Chlorocebus sabaeus
smiles,measurement,setting,value
CC(C)CNC(=O)c1cc(Cl)ccc1NS(=O)(=O)c1ccc(Oc2ccccc2Cl)cc1,EC90,"Zika virus [1]; Baseline response 0 %, EC90 CI (lower) 6.158 uM, EC90 CI (upper) 70.47 uM, Hill slope -6.578, Maximum measured 126.059 %, Maximum response 100 %, Minimum measured 2.779 %, P-gp concentration 2 uM, R squared 0.75, P-gp inhibitor Elacidar",40.6 µM
same,EC90,"Zika virus [1]; Zika virus, VeroE6/TMPRSS2",32.4 µM
same,EC90,"Zika virus [1]; Zika virus, VeroE6/TMPRSS2, Maximum measured 119.408 %, Minimum measured 55.418 %, P-gp concentration 2 uM, P-gp inhibitor Elacidar",> 3.33 µM
same,EC50,Zika virus [1]; veroe6/tmprss2,> 3.33 µM and 19.2 µM and 29.1 µM
same,EC90,"dengue virus type 2 [2]; Baseline response 0 %, EC90 CI (lower) 0.741 uM, EC90 CI (upper) 4.671 uM, Hill slope -3.39, Maximum measured 117.923 %, Maximum response 100 %, Minimum measured 16.6 %, P-gp concentration 2 uM, R squared 0.718, P-gp inhibitor Elacidar",6.8 µM
same,EC90,"dengue virus type 2 [2]; Baseline response 0 %, EC90 CI (lower) […] uM, EC90 CI (upper) 0.019 uM, Hill slope -1.255, Maximum measured 118.581 %, Maximum response 100 %, Minimum measured 5.952 %, P-gp concentration 2 uM, R squared 0.745, P-gp inhibitor Elacidar",0.18 µM
same,EC90,"dengue virus type 2 [2]; Dengue virus, VeroE6/TMPRSS2, Maximum measured 165.458 %, Minimum measured 88.019 %, P-gp concentration 2 uM, P-gp inhibitor Elacidar",> 16.7 µM
same,EC50,"Zika virus [3]; Zika virus, Vero C1008",> 50 µM
same,EC90,"Zika virus [3]; Zika virus, Vero C1008, Maximum measured -0.388 %, Minimum measured -2.415 %",> 50 µM
same,EC50,Zika virus [4],4.4 µM
same,EC90,"Zika virus [4]; VeroE6/TMPRSS2, Baseline response 0 %, Hill slope -0.566, Maximum measured 86.366 %, Maximum response 100 %, Minimum measured 3.533 %, R squared 0.722",> 50 µM
same,EC50,dengue virus type 2 [5],0.569 µM
same,EC90,"dengue virus type 2 [5]; Hill slope -0.624, Maximum measured 99.166 %, Minimum measured 12.707 %, R squared 0.743",> 16.7 µM
same,EC50,"dengue virus type 2 [6]; Dengue virus, Vero C1008",5.64 µM
same,EC90,"dengue virus type 2 [6]; Dengue virus, Vero C1008, Baseline response 0 %, Hill slope -37.142, Maximum measured 110.023 %, Maximum response 100 %, Minimum measured 0.325 %, P-gp concentration 500 nM, R squared 0.985, P-gp inhibitor CP100356",5.99 µM
same,EC50,dengue virus type 2 [7],> 6.5 µM
CC(C)CNC(=O)c1cc(Cl)c(F)cc1NS(=O)(=O)c1ccc(Oc2ccccc2Cl)cc1,EC90,"Zika virus [1]; Baseline response 0 %, Hill slope -1.279, Maximum measured 136.576 %, Maximum response 60 %, Minimum measured 13.183 %, P-gp concentration 2 uM, R squared 0.138, P-gp inhibitor Elacidar",> 50 µM
same,EC90,"Zika virus [1]; Baseline response 0 %, Hill slope -13.406, Maximum measured 146.245 %, Maximum response 100 %, Minimum measured 54.335 %, P-gp concentration 2 uM, R squared 0.12, P-gp inhibitor Elacidar",> 16.7 µM
same,EC50,"Zika virus [1]; Zika virus, VeroE6/TMPRSS2",> 16.7 µM
same,EC50,Zika virus [1]; veroe6/tmprss2,27.9 µM
same,EC90,"dengue virus type 2 [2]; Dengue virus, VeroE6/TMPRSS2",1.89 µM
same,EC90,"dengue virus type 2 [2]; Dengue virus, VeroE6/TMPRSS2, Maximum measured 155.684 %, Minimum measured 125.095 %, P-gp concentration 2 uM, P-gp inhibitor Elacidar",> 5.56 µM
same,EC50,"Zika virus [3]; Zika virus, Vero C1008",> 50 µM
same,EC90,"Zika virus [3]; Zika virus, Vero C1008, Baseline response 0 %, Hill slope -1.049, Maximum measured 4.723 %, Maximum response 100 %, Minimum measured -5.364 %, R squared 0.235",> 50 µM
same,EC90,"Zika virus [3]; Zika virus, Vero C1008, Maximum measured 0.142 %, Minimum measured -3.427 %",> 50 µM
same,EC90,"Zika virus [3]; Zika virus, Vero C1008, Maximum measured 0.689 %, Minimum measured -11.388 %",> 50 µM
same,EC50,Zika virus [4],> 50 µM
same,EC90,"Zika virus [4]; VeroE6/TMPRSS2, Maximum measured 624.218 %, Minimum measured 63.552 %",> 50 µM
same,EC50,dengue virus type 2 [5],0.193 µM
same,EC90,"dengue virus type 2 [5]; Hill slope -0.469, Maximum measured 101.396 %, Minimum measured 33.359 %, R squared 0.321",> 1.85 µM
same,EC90,"dengue virus type 2 [6]; Baseline response 0 %, Hill slope -36.406, Maximum measured 110.21 %, Maximum response 100 %, Minimum measured 0.136 %, P-gp concentration 500 nM, R squared 0.986, P-gp inhibitor CP100356",5.99 µM
same,EC50,"dengue virus type 2 [6]; Dengue virus, Vero C1008",5.32 µM
same,EC90,"dengue virus type 2 [6]; Dengue virus, Vero C1008",5.85 µM
same,EC50,dengue virus type 2 [6]; vero c1008,5.64 µM
same,EC50,dengue virus type 2 [7],> 3.1 µM
C=CC[C@H](Nc1cccc(-c2nn[nH]n2)c1)c1cc(Cl)cc2[nH]ncc12,EC50,[8],0.988 µM
same,EC90,[8],2.78 µM
O=C(Nc1ccc2c(c1)CNC2)c1cc(Cl)cc2[nH]ncc12,EC50,"Zika virus [1]; Zika virus, VeroE6/TMPRSS2",12.7 µM
same,EC90,"Zika virus [1]; Zika virus, VeroE6/TMPRSS2, Baseline response 0 %, Hill slope -1.535, Maximum measured 150.297 %, Maximum response 100 %, Minimum measured 39.396 %, P-gp concentration 2 uM, R squared 0.523, P-gp inhibitor Elacidar",> 16.7 µM
same,EC50,"dengue virus type 2 [2]; Dengue virus, VeroE6/TMPRSS2",> 50 µM
same,EC90,"dengue virus type 2 [2]; Dengue virus, VeroE6/TMPRSS2, Maximum measured 202.528 %, Minimum measured 74.934 %, P-gp concentration 2 uM, P-gp inhibitor Elacidar",> 50 µM
same,EC90,"Zika virus [3]; Zika virus, Vero C1008, Baseline response 0 %, Hill slope 1.599, Maximum measured 39.692 %, Maximum response 100 %, Minimum measured -0.234 %, R squared 0.961",> 50 µM
same,EC90,"Zika virus [3]; Zika virus, Vero C1008, Baseline response 0 %, Hill slope 4.496, Maximum measured 86.5 %, Maximum response 100 %, Minimum measured 2.921 %, R squared 0.876",> 50 µM
same,EC90,"Zika virus [3]; Zika virus, Vero C1008, Baseline response 0 %, EC90 CI (lower) 23.876 uM, EC90 CI (upper) 46.036 uM, Hill slope 2.096, Maximum measured 107.811 %, Maximum response 100 %, Minimum measured 2.258 %, R squared 0.969",33.1 µM
same,EC50,Zika virus [3]; vero c1008,34 µM and > 50 µM and 11.6 µM
same,EC90,"Zika virus [9]; EC90 CI (lower) 3.61 uM, EC90 CI (upper) 15.25 uM, Hill slope 2.511, Maximum measured 126.79 %, Minimum measured 6.324 %, P-gp concentration 500 nM, R squared 0.896",7.42 µM
same,EC50,"Zika virus [9]; Zika virus, Vero C1008",4.57 µM
same,EC90,"Zika virus [9]; Zika virus, Vero C1008, EC90 CI (lower) 7.143 uM, EC90 CI (upper) 23.592 uM, Hill slope 2.106, Maximum measured 121.753 %, Minimum measured 3.066 %, P-gp concentration 100 nM, R squared 0.93",13 µM
same,EC50,Zika virus [9]; vero c1008,3.09 µM
same,EC50,dengue virus type 2 [10]; Vero C1008,> 50 µM
same,EC90,"dengue virus type 2 [10]; Vero C1008, Baseline response 0 %, Hill slope -0.996, Maximum measured 1.395 %, Maximum response 100 %, Minimum measured -3.373 %, R squared 0.016",> 50 µM
same,EC50,"dengue virus type 2 [6]; Dengue virus, Vero C1008",> 50 µM
same,EC90,"dengue virus type 2 [6]; Dengue virus, Vero C1008, Maximum measured 2.237 %, Minimum measured -2.116 %, P-gp concentration 100 nM, P-gp inhibitor CP100356",> 50 µM
same,EC90,"dengue virus type 2 [6]; Dengue virus, Vero C1008, Maximum measured 108.122 %, Minimum measured 103.322 %, P-gp concentration 500 nM, P-gp inhibitor CP100356",> 50 µM
same,EC90,"dengue virus type 2 [6]; Dengue virus, Vero C1008, Maximum measured 122.049 %, Minimum measured 106.43 %, P-gp concentration 500 nM, P-gp inhibitor CP100356",> 50 µM
